Test results published in patent US6184246A, “Inhibition of cytokine production by polymethoxylated flavones” (priority 1999, dated 2001).
Entries after “also recorded” stand apart in the source; their conditions may differ. Where two headings read alike, the source gives them in different places.

Assays:
[1] = test system: TNFα; assay: TNFα production by LPS-stimulated human monocytes (ELISA); assay type: cell-based; settings: for IC50: read-out: IC50 for inhibition of TNFα production; for inhibition of TNFα production (in words): LPS-stimulated human monocytes
Experimental: Isolation of human peripheral blood monocytes: Peripheral blood mononuclear cells (PBMCs) were isolated from residual source leukocytes (Bonfils Blood Center, CO) by density gradient centrifugation using Ficoll-Paque Plus (Pharmacia, Sweden).
(§1) To measure the impact of the flavones on cytokine production, PBMCs were resuspended to 4×10^6 /mL in complete medium, i.e., Dulbecco's Modified Eagle Medium containing 30% FCS, 2 mM glutamine, 100 U/mL Penicillin-G, and 100 μg/mL streptomycin. […] Nonadherent cells (lymphocytes) were separated from the plastic adherent cells (monocytes) by washing the wells twice with 200 μL of medium. The monocytes were cultured an additional 30 min in 100 μL of complete medium containing graded concentrations of the compound of interest and the cultures were then adjusted to contain […] LPS to stimulate cytokine production. Culture supernatants were harvested 14 h later, and cells were lysed by addition of 50 μL of Dulbecco's phosphate buffered saline containing 1% NP40. Culture supernatants were evaluated for TNFα, IL-1β, IL-6, IL-8, IL-10, and MIP-1α content using specific enzyme-linked immunosorbent assays (ELISA) purchased from R&D Systems. IL-1β was measured in cell lysates by ELISA. Lactate dehydrogenase (LDH) content of cell lysates was measured to determine compound effects on cell viability: To 50 μL of lysate were added 200 μL of 50 mM sodium pyrophosphate buffer (pH 8.9) containing 50 mM lactic acid and 4 mg/mL β-nicotinamide adenine dinucleotide (Sigma); rates of reduction of nicotinamide adenine dinucleotide were measured at room temperature at 340 nm.

[2] = test system: human monocytes; assay: Cytotoxicity by LDH content of monocyte lysates
Experimental: as §1

[3] = test system: TNFα; settings: mice, cited from earlier work
[4] = test system: type-IV phosphodiesterase semi-purified from U937 cells; assay: Phosphodiesterase cAMP SPA enzyme assay; assay type: biochemical; settings: hydrolysis of cAMP; read-out: concentration inhibiting phosphodiesterase activity 50%
Experimental: PDE semipurified from U937 monocytic cells was evaluated for the ability to catalyze the hydrolysis of cAMP in the presence of graded concentrations of flavone, myricetin, and HMF as described below. The rates are plotted as percent of control-reactions, where no flavonoids were present. Testing flavones as phosphodiesterase inhibitors and inducers of cellular cyclic adenosine monophosphate (cAMP): The Phosphodiesterase cAMP SPA Enzyme Assay (Amersham, Arlington Heights, Ill.) was used to test the ability of flavones to inhibit cAMP hydrolysis catalyzed by phosphodiesterase. The phosphodiesterase used in this study was semi-purified from U937 cells, and was determined to be mostly the type-IV isoform based on sensitivity to selected isoform inhibitors (Trophy, T. J., J. Pharmacol. Experimental Therapeutics, 1195-1205 (1992)).

[5] = test system: intracellular cAMP; assay: Cellular cAMP in human monocytes (EIA); assay type: cell-based; settings: 30 min; for intracellular cAMP level: media alone 2.7±0.9
Experimental: To test flavones for the ability to cause an increase in cellular cAMP, monocytes were purified from PBMC by centrifugal elutriation. Monocytes were resuspended to 5×10^6 /mL in complete medium and 2 mL cell suspension were dispensed into FALCON 17×100 mm polypropylene culture tubes (Becton Dickinson). The cells were precultured 2 h at 37° C. and 5% CO2, and then cultured an additional 30 min following adjusting culture media to contain 100 μM of the flavone of interest or 200 μM IBMX (3-isobutyl-1-methylxanthine). Cells were then collected by centrifugation, lysed in 300 μL of ice cold aqueous solution containing 10 mM HEPES (pH 7.6) and 1% NP40. The lysates were applied to 100 mg columns of Amprep SAX resin (Amersham). The columns were then rinsed with 1 mL of methanol and the cAMP was eluted in 600 μL of methanol containing 0.01 M HCl. The eluates were chilled on dry ice and dried under vacuum. The Amersham Biotrak cAMP EIA assay was used to measure cAMP content of residues resuspended in 400 μL of assay buffer.

[6] = test system: IL-10; assay: IL-10 production by LPS-stimulated human monocytes (ELISA); assay type: cell-based; settings: LPS-stimulated human monocytes
Experimental: (§2) Adherent purified human monocytes were cultured in the presence of graded concentrations of heptamethoxyflavone for 30 min. The monocyte cultures were then adjusted to contain 20 ng/mL LPS. After 14 h of culture, the cytokines TNFα, IL-6, IL-8, MIP-1α, and IL-10 were assayed in the culture supernatants and IL-1β was assayed in the cell lysates using specific ELISA assays as described below. Values expressed as the percent of cytokine produced in flavone-free cultures are the means and standard errors determined using monocytes isolated from three independent donors.
(§3) Isolation of human peripheral blood monocytes: Peripheral blood mononuclear cells (PBMCs) were isolated from residual source leukocytes (Bonfils Blood Center, CO) by density gradient centrifugation using Ficoll-Paque Plus (Pharmacia, Sweden). Monocytes were purified further by plastic adherence (see below) or by centrifugal elutriation as described previously (Manthey, C. L., et al., J. Leuk Biol., 64: 409-416 (1998)).
(§4) IL-1β was measured in cell lysates by ELISA.

[7] = test system: IL-1β; assay: IL-1β production by LPS-stimulated human monocytes (ELISA, cell lysates); assay type: cell-based; settings: cytokine suppression profile, HMF compared against IBMX (Table 2)
Experimental: as §2, §3, §4

[8] = test system: IL-6; assay: IL-6 production by LPS-stimulated human monocytes (ELISA); assay type: cell-based; settings: cytokine suppression profile, HMF compared against IBMX (Table 2)
Experimental: as §2, §3, §4

[9] = test system: IL-8; assay: IL-8 production by LPS-stimulated human monocytes (ELISA); assay type: cell-based; settings: cytokine suppression profile, HMF compared against IBMX (Table 2)
Experimental: as §2, §3, §4

[10] = human monocytes, 30 min preculture with compound, LPS, 14 h, 30% FCS
[11] = human monocytes, LDH content of cell lysates
[12] = Monocyte, human monocytes, 30 min preculture with compound, LPS, 14 h, 30% FCS

For margaretin, the IC50 [1, 10] was > 200 µM and the “cytotoxicity towards cultured human monocytes (depletion of cellular LDH activity)” value [2] was “no cytotoxicity”.
In the case of COc1ccc(-c2cc(=O)c3c(OC)c(OC)c(OC)cc3o2)cc1 [tetra-O-methylscutellarein], the “cytotoxicity towards cultured human monocytes (depletion of cellular LDH activity)” value [2, 11] is reported as “exception”.
For CC1OC(OCC2OC(Oc3c(-c4ccc(O)cc4)oc4cc(OC5OC(C)C(O)C(O)C5O)cc(O)c4c3=O)C(O)C(O)C2O)C(O)C(O)C1O (centres unmarked) [robinin], the “inhibition of TNFα production (in words)” value [1] was “lacked activity” and the “cytotoxicity towards cultured human monocytes (depletion of cellular LDH activity)” value [2, 11] was “lacked activity and any associated cytotoxicity”.
In the case of O=c1cc(-c2ccc(O)cc2)oc2cc(O)c([C@@H]3O[C@H](CO)[C@@H](O)[C@H](O)[C@H]3O)c(O)c12 [isovitexin], the IC50 [1, 12] is reported as > 200 µM and the “cytotoxicity towards cultured human monocytes (depletion of cellular LDH activity)” value [2] is reported as “no cytotoxicity”.
In the case of O=c1c(O)c(-c2ccc(O)cc2)oc2cc(O)ccc12 [3,4,7-trihydroxyflavone], the “inhibition of TNFα production (in words)” value [1] is reported as “lacked activity” and the “cytotoxicity towards cultured human monocytes (depletion of cellular LDH activity)” value [2] is reported as “lacked activity and any associated cytotoxicity”.
For O=c1c(O)c(-c2ccc(O)c(O)c2)oc2cc(O)ccc12 [fisetin], the “inhibition of TNFα production (in words)” value [1] was “lacked activity” and the “cytotoxicity towards cultured human monocytes (depletion of cellular LDH activity)” value [2, 11] was “lacked activity and any associated cytotoxicity”.
With O=c1cc(-c2ccccc2)oc2cc(O)c(O)c(O)c12 [baicalein] the “inhibition of TNFα production (in words)” value [1] was “lacked activity” and the “cytotoxicity towards cultured human monocytes (depletion of cellular LDH activity)” value [2] was “lacked activity and any associated cytotoxicity”.
In the case of COc1ccc([C@@H]2CC(=O)c3c(O)cc(O[C@@H]4O[C@H](CO[C@@H]5O[C@@H](C)[C@H](O)[C@@H](O)[C@H]5O)[C@@H](O)[C@H](O)[C@H]4O)cc3O2)cc1O [hesperidin], the IC50 ([1]; Homo sapiens, Monocyte) is reported as > 200 µM and the “cytotoxicity towards cultured human monocytes (depletion of cellular LDH activity)” value [2] is reported as “no cytotoxicity”.
In the case of O=c1c(O)c(-c2ccccc2)oc2ccccc12 [3-hydroxyflavone], the “inhibition of TNFα production (in words)” value [1] is reported as “lacked activity” and the “cytotoxicity towards cultured human monocytes (depletion of cellular LDH activity)” value [2] is reported as “lacked activity and any associated cytotoxicity”.
With O=c1c(O)c(-c2ccccc2)oc2cc(O)cc(O)c12 [galagin] the “inhibition of TNFα production (in words)” value [1] was “lacked activity” and the “cytotoxicity towards cultured human monocytes (depletion of cellular LDH activity)” value [2, 11] was “lacked activity and any associated cytotoxicity”.
With O=C1CC(c2ccccc2)Oc2ccccc21 (centres unmarked) [flavanone] the “inhibition of TNFα production (in words)” value [1] was “lacked activity” and the “cytotoxicity towards cultured human monocytes (depletion of cellular LDH activity)” value [2, 11] was “lacked activity and any associated cytotoxicity”.
For O=C1C[C@@H](c2ccc(O)c(O)c2)Oc2cc(O)cc(O)c21 [eriodictyol], the “inhibition of TNFα production (in words)” value [1] was “lacked activity” and the “cytotoxicity towards cultured human monocytes (depletion of cellular LDH activity)” value [2] was “lacked activity and any associated cytotoxicity”.
For Oc1cc(O)c2c(c1)O[C@H](c1ccc(O)c(O)c1)[C@H](O)C2 [epicatechin], the “inhibition of TNFα production (in words)” value [1] was “lacked activity” and the “cytotoxicity towards cultured human monocytes (depletion of cellular LDH activity)” value [2] was “lacked activity and any associated cytotoxicity”.
For C[C@@H]1O[C@@H](O[C@H]2[C@H](Oc3cc(O)c4c(c3)O[C@H](c3ccc(O)cc3)CC4=O)O[C@H](CO)[C@@H](O)[C@@H]2O)[C@H](O)[C@H](O)[C@H]1O [naringin], the IC50 [1, 12] is listed as > 200 µM, the “cytotoxicity towards cultured human monocytes (depletion of cellular LDH activity)” value [2] is listed as “no cytotoxicity” and the liver injury ([3]; lipopolysaccharide-induced) is listed as “suppress”. The “lipopolysaccharide-induced TNFα release” value [3] was “suppress”.
With O=c1cc(-c2ccccc2)oc2cc(O)cc(O)c12 [chrysin] the “inhibition of TNFα production (in words)” value [1] was “lacked activity” and the “cytotoxicity towards cultured human monocytes (depletion of cellular LDH activity)” value [2, 11] was “lacked activity and any associated cytotoxicity”.
In the case of O=c1cc(-c2ccc(O)cc2)oc2ccc(O)c(O)c12 [4,5,6-trihydroxyflavone], the “inhibition of TNFα production (in words)” value [1] is reported as “lacked activity” and the “cytotoxicity towards cultured human monocytes (depletion of cellular LDH activity)” value [2] is reported as “lacked activity and any associated cytotoxicity”.
With O=c1c(O)c(-c2cc(O)c(O)c(O)c2)oc2cc(O)cc(O)c12 [myricetin] the “inhibition of TNFα production (in words)” value [1] was “lacked activity; also recorded: much less active”, the “cytotoxicity towards cultured human monocytes (depletion of cellular LDH activity)” value [2, 11] was “lacked activity and any associated cytotoxicity” and the IC50 [4] was 16 µM. The “increase of monocyte cAMP levels over media alone (in words)” value (shortened to “increase of monocyte cAMP levels”) ([5]; 100 μM) was “much less” and the “intracellular cAMP level” value ([5]; 100 μM) was 3.7±1.0 pmol/10^7 cells.
In the case of COc1ccc(-c2cc(=O)c3c(O)cc(O[C@@H]4O[C@H](CO[C@@H]5O[C@@H](C)[C@H](O)[C@@H](O)[C@H]5O)[C@@H](O)[C@H](O)[C@H]4O)cc3o2)cc1O [diosmin], the IC50 [1, 12] is reported as > 200 µM and the “cytotoxicity towards cultured human monocytes (depletion of cellular LDH activity)” value [2, 11] is reported as “no cytotoxicity”.
With COc1ccc([C@@H]2CC(=O)c3c(O)cc(O)cc3O2)cc1O [hesperetin] the “inhibition of TNFα production (in words)” value [1] was “lacked activity” and the “cytotoxicity towards cultured human monocytes (depletion of cellular LDH activity)” value [2] was “lacked activity and any associated cytotoxicity”.
In the case of isomargaretin, the IC50 [1, 10] is reported as > 200 µM and the “cytotoxicity towards cultured human monocytes (depletion of cellular LDH activity)” value [2] is reported as “no cytotoxicity”.
For O=c1cc(-c2ccccc2)oc2ccccc12 [flavone], the “inhibition of TNFα production (in words)” value [1] was “much less active”, the IC50 [4] was 11 µM and the “increase of monocyte cAMP levels” value ([5]; 100 μM) was “much less”. For the same compound, the “intracellular cAMP level” value ([5]; 100 μM) was 3.6±1.1 pmol/10^7 cells.
For C[C@@H]1O[C@@H](OC[C@H]2O[C@@H](Oc3cc(O)c4c(c3)O[C@H](c3ccc(O)cc3)CC4=O)[C@H](O)[C@@H](O)[C@@H]2O)[C@H](O)[C@H](O)[C@H]1O [narirutin], the IC50 [1, 12] was > 200 µM and the “cytotoxicity towards cultured human monocytes (depletion of cellular LDH activity)” value [2] was “no cytotoxicity”.
With O=c1c(O)c(-c2ccc(O)c(O)c2)oc2c(O)c(O)cc(O)c12 [gossypetin] the “inhibition of TNFα production (in words)” value [1] was “lacked activity” and the “cytotoxicity towards cultured human monocytes (depletion of cellular LDH activity)” value [2, 11] was “lacked activity and any associated cytotoxicity”.
For CC(C)Cn1c(=O)n(C)c(=O)c2[nH]cnc21 [IBMX, 3-isobutyl-1-methylxanthine], the “inhibition of IL-10 production (in words)” value [6] was “did not inhibit”, the “suppression of IL-1β production” value [7] was “neither suppressed” and the “suppression of IL-6 production” value [8] was “neither suppressed”. For the same compound, the “suppression of IL-8 production” value [9] was “neither suppressed”, the “increase of monocyte cAMP levels” value ([5]; 200 μM) was “at least a doubling” and the “intracellular cAMP level” value ([5]; 200 μM) was 8.3±1.9 pmol/10^7 cells.
For O=c1cc(-c2ccccc2)oc2cc(O)ccc12 [7-hydroxyflavone], the “inhibition of TNFα production (in words)” value [1] was “lacked activity” and the “cytotoxicity towards cultured human monocytes (depletion of cellular LDH activity)” value [2, 11] was “lacked activity and any associated cytotoxicity”.
For Oc1cc(O)c2c(c1)OC(c1ccc(O)c(O)c1)C(O)C2 (centres unmarked) [catechin], the “inhibition of TNFα production (in words)” value [1] was “lacked activity” and the “cytotoxicity towards cultured human monocytes (depletion of cellular LDH activity)” value [2, 11] was “lacked activity and any associated cytotoxicity”.
